IC50 data for nine compounds are collected here from US12421209B2, “Compounds” (Hoffmann-La Roche Inc., priority 2021, dated 2025).

SMILES strings stand for the structures. Some results are limits rather than exact numbers.

Common to all, as to type: cell-based
One experiment deals with T1, hERG channels (Homo sapiens, UniProt Q12809).
T1 construct: Evotec (cryopreserved) ATCC PTA-6812; host or cells: CHO (Chinese hamster ovary) cells
The experiment can be described thus: hERG screening assay (automated patch clamp, CHO crelox hERG cell line). Particulars: CHO-hERG cells, whole-cell patch clamp at 35-37° C. The source says: The CHO crelox hERG cell line (ATCC reference Nr. PTA-6812, female Chinese hamster cells) was generated and validated at Roche. Ready-to-use frozen instant CHO-hERG cells were cryopreserved at Evotec (Germany) and used directly in the experiments.
The extracellular solution contains (in mM): NaCl 150; KCl 4; CaCl2) 1; MgCl2 1; HEPES 10; pH 7.2-7.4 with NaOH, osmolarity 290-330 mOsm. The internal solution contains (in mM): KCl, 10; KF, 100; NaCl, 10; HEPES, 10; EGTA, 20; pH=7.0-7.4 with KOH, osmolarity 260-300 mOsm.
The effects of a compound on hERG K+-currents parameters will be evaluated at 2 concentrations in at least 4 cells.
The hERG test is performed using automated patch clamp system SynchroPatch® 384 (Nanion Technologies GmbH, Germany). K+ currents are measured with the patch-voltage-clamp technique in the whole-cell configuration at 35-37° C.
Cells were held at a resting voltage of −80 mV and they were stimulated by a voltage pattern shown in FIG. 1 to activate hERG channels and conduct outward IKhERG current, at a stimulation frequency of 0.1 Hz (6 bpm)
The amplitudes of IKhERG were recorded in each concentration of drug and they were compared to the vehicle control values (taken as 100%) to define fractional blocks. The concentration-response data were fitted with the following relationship: […]
On the technique in general: hERG is a cardiac potassium channel; its block is linked to QT prolongation.

The target in experiment [1] is T2, NLRP3 (Homo sapiens, UniProt Q96P20). The experiment can be described thus: THP-1 cells pyroptosis assay (LPS priming, nigericin, resazurin read-out). Also on record: Seed THP-1 cells (25,000 cells/well) containing 1.0 μg/ml LPS; host or cells: THP-1 cells. The note with it: 1.0 μg/ml LPS, 5 μM nigericin. As for the experimental part:
THP-1 cells (ATCC #TIB-202) were grown in RPMI containing L-glutamine (Gibco #11835) supplemented with 1 mM sodium pyruvate (Sigma #S8636) and penicillin (100 units/ml)/streptomycin (0.1 mg/ml) (Sigma #P4333) in 10% Fetal Bovine Serum (FBS) (Sigma #F0804). The cells were routinely passaged and grown to confluency (˜10^6 cells/ml). On the day of the experiment, THP-1 cells were harvested and resuspended into RPMI medium (without FBS). The cells were then counted and viability (>90%) checked by Trypan blue (Sigma #T8154). Appropriate dilutions were made to give a concentration of 625,000 cells/ml. To this diluted cell solution was added LPS (Sigma #L4524) to give a lug/ml Final Assay Concentration (FAC). 40 μl of the final preparation was aliquoted into each well of a 96-well plate. The plate thus prepared was used for compound screening.
The following method step-by-step assay was followed for compound screening. • 1. Seed THP-1 cells (25,000 cells/well) containing 1.0 μg/ml LPS in 40 μl of RPMI medium (without FBS) in 96-well, black walled, clear bottom cell culture plates coated with poly-D-lysine (VWR #734-0317) • 2. Add 5 μl compound (8 points half-log dilution, with 10 μM top dose) or vehicle (DMSO 0.1% FAC) to the appropriate wells • 3. Incubate for 3 hours at 37° C., 5% CO2 • 4. Add 5 μl nigericin (Sigma #N7143) (FAC 5 μM) to all wells • 5. Incubate for 1 hr at 37° C., 5% CO2 • 6. At the end of the incubation period, spin plates at 300×g for 3 mins and remove supernatant • 7. Then add 50 μl of resazurin (Sigma #R7017) (FAC 100 μM resazurin in RPMI medium without FBS) and incubate plates for a further 1-2 hours at 37° C. and 5% CO2 • 8. Plates were read in an Envision reader at Ex 560 nm and Em 590 nm • 9. IC50 data is fitted to a non-linear regression equation (log inhibitor vs response-variable slope 4-parameters)

Experiment [2] has as its target T2, NLRP3. The experiment can be described thus: Human whole blood IL-1β release assay (LPS, nigericin, AlphaLisa). Also on record: Human whole blood in Li-heparin tubes was obtained from healthy donors; from tissue; host or cells: human whole blood from healthy donors. Particulars: 10 μM nigericin. As for the experimental part:
For systemic delivery, the ability to inhibit NLRP3 when the compounds are present within the bloodstream is of great importance. For this reason, the NLRP3 inhibitory activity of a number of compounds in human whole blood was investigated in accordance with the following protocol.
Human whole blood in Li-heparin tubes was obtained from healthy donors from a volunteer donor panel. • 1. Plate out 80 μl of whole blood containing lug/ml of LPS in 96-well, clear bottom cell culture plate (Corning #3585) • 2. Add 10 μl compound (8 points half-log dilution with 10 μM top dose) or vehicle (DMSO 0.1% FAC) to the appropriate wells • 3. Incubate for 3 hours at 37° C., 5% CO2 • 4. Add 10 μl nigericin (Sigma #N7143) (10 μM FAC) to all wells • 5. Incubate for 1 hr at 37° C., 5% CO2 • 6. At the end of the incubation period, spin plates at 300×g for 5 mins to pellet cells and remove 20 μl of supernatant and add to 96-well v-bottom plates for IL-1β analysis (note: these plates containing the supernatants can be stored at −80° C. to be analysed at a later date) • 7. IL-1β was measured according to the manufacturer protocol (Perkin Elmer-AlphaLisa IL-1 Kit AL220F-5000) • 8. IC50 data is fitted to a non-linear regression equation (log inhibitor vs response-variable slope 4-parameters)
(Bead proximity is the source of the signal in Alpha formats.)

T2 sequence (Q96P20 whole entry): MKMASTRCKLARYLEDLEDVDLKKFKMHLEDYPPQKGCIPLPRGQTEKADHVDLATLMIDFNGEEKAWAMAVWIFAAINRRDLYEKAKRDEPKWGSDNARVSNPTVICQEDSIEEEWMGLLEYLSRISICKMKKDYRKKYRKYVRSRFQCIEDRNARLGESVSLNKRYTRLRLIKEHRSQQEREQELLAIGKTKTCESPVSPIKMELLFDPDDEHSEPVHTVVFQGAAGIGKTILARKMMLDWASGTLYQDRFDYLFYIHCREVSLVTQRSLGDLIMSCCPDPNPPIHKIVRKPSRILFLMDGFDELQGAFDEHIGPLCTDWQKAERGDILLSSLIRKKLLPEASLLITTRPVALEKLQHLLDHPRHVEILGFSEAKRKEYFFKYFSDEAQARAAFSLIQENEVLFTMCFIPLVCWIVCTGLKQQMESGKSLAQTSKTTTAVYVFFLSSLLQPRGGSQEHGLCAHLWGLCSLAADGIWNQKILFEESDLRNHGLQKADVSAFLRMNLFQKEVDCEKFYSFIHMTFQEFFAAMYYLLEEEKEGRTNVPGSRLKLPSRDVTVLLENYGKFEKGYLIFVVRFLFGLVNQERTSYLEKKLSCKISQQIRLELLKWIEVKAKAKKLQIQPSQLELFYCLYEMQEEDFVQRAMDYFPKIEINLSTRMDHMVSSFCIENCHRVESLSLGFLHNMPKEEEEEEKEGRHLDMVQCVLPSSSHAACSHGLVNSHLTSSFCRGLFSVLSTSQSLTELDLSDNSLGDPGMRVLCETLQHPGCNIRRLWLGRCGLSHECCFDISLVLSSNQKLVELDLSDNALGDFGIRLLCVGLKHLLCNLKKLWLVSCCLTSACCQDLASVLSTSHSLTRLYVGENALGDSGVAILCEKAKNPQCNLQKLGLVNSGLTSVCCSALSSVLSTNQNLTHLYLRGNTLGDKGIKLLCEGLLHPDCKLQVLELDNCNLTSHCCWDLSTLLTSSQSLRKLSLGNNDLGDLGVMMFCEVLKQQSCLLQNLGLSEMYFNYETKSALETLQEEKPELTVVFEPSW
T1 sequence (Q12809 whole entry): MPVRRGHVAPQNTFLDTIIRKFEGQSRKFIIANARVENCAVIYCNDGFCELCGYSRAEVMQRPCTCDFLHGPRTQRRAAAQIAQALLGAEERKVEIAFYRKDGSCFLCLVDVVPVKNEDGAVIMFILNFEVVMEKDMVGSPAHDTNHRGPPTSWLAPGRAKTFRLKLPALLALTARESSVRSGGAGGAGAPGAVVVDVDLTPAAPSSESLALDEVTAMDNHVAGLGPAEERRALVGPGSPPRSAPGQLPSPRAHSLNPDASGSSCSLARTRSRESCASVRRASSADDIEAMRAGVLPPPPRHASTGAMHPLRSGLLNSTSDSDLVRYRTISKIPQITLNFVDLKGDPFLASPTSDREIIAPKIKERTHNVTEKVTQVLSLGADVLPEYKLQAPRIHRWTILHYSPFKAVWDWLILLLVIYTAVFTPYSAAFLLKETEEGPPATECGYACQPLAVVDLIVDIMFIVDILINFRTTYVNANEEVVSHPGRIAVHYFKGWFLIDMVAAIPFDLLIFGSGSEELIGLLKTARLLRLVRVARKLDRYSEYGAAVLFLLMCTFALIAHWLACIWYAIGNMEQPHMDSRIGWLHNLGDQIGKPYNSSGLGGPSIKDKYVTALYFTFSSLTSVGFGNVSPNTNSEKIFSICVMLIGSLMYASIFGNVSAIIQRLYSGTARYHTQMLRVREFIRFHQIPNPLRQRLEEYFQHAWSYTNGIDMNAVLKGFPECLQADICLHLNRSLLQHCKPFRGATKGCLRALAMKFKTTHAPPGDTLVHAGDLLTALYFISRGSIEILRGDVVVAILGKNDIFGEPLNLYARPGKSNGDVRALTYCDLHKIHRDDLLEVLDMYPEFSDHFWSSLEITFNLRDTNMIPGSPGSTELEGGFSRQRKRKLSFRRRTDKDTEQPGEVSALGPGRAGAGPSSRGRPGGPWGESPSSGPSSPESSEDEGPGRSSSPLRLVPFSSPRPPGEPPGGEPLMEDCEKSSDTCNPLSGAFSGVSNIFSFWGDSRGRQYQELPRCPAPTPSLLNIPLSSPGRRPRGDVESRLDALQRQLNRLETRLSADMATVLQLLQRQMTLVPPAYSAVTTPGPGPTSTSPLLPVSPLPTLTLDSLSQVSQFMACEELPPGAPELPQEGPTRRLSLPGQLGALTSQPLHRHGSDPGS

As a reminder, the IC50 is the midpoint of a concentration-inhibition curve. For the compound `CCN1CCC[C@@H](Nc2nnc(-c3ccc(C(F)(F)F)cc3O)c(C)n2)C1` [Example 4, 2-[3-[[(3R)-1-Ethyl-3-piperidyl]amino]-5-methyl-1,2,4-triazin-6-yl]-5-(trifluoromethyl) phenol], the results for the IC50 at hERG channels, on NLRP3 [1] and against NLRP3 [2] were above 10000 nM, 1.7 nM and 5.4 nM, respectively.

As to `CCN1CCC[C@@H](Nc2nnc(-c3ccc4c(c3O)CCO4)c(C)n2)C1` [Example 7, 5-[3-[[(3R)-1-Ethyl-3-piperidyl]amino]-5-methyl-1,2,4-triazin-6-yl]-2,3-dihydrobenzofuran-4-ol], the IC50 at hERG channels was above 20000 nM; at NLRP3 [1], 1.1 nM; at NLRP3 [2] it was 3.7 nM.

As for `Cc1nc(N[C@@H]2CCCN(C)C2)nnc1-c1ccc(C(F)(F)F)cc1O` [Example 18, 2-[5-Methyl-3-[[(3R)-1-methyl-3-piperidyl]amino]-1,2,4-triazin-6-yl]-5-(trifluoromethyl) phenol], the IC50 was found to be 1 nM at NLRP3 [1] and 20.2 nM against NLRP3 [2].

Consider `Cc1nc(N[C@@H]2CCCC[C@H]2O)nnc1-c1ccc(C(F)(F)F)cc1O` [Example 19, 2-[3-[[(1R,2R)-2-Hydroxycyclohexyl]amino]-5-methyl-1,2,4-triazin-6-yl]-5-(trifluoromethyl) phenol], for which the IC50 was 32.2 nM on NLRP3 [1] and 228 nM against NLRP3 [2].

For the compound `CCN1CCC[C@@H](Nc2nnc(-c3c(C)cc(C(F)(F)F)cc3O)c(C)n2)C1` [Example 21, 2-[3-[[(3R)-1-Ethyl-3-piperidyl]amino]-5-methyl-1,2,4-triazin-6-yl]-3-methyl-5-(trifluoromethyl) phenol], the IC50 was 1.6 nM on NLRP3 [1] and 57.6 nM against NLRP3 [2].

`CCN1CCC[C@@H](Nc2nnc(-c3ccc(OC(F)(F)F)cc3O)c(C)n2)C1` [Example 22, 2-[3-[[(3R)-1-Ethyl-3-piperidyl]amino]-5-methyl-1,2,4-triazin-6-yl]-5-(trifluoromethoxy) phenol]: the half-inhibitory concentration (IC50) is 1.2 nM on NLRP3 [1] and 10.2 nM at NLRP3 [2].

For the compound `CCN1C[C@@H](O)C[C@@H](Nc2nnc(-c3ccc(C(F)(F)F)cc3O)c(C)n2)C1` [Example 23, (3S,5R)-1-Ethyl-5-[[6-[2-hydroxy-4-(trifluoromethyl)phenyl]-5-methyl-1,2,4-triazin-3-yl]amino]piperidin-3-ol], the IC50 on NLRP3 [1] was 40.1 nM; at NLRP3 [2] it was 40.5 nM.

In the case of `CCN1C[C@@H](O)C[C@@H](Nc2nnc(-c3c(C)cc(C(F)(F)F)cc3O)c(C)n2)C1` [Example 24, (3S,5R)-1-Ethyl-5-[[6-[2-hydroxy-6-methyl-4-(trifluoromethyl)phenyl]-5-methyl-1,2,4-triazin-3-yl]amino]piperidin-3-ol], the concentration for half-maximal inhibition (IC50) at NLRP3 [1] turned out to be 49.6 nM; at NLRP3 [2] it was 125 nM.

As to `CCN1CCC[C@@H](Nc2nnc(-c3ccc4c(c3O)CCC4)c(C)n2)C1` [Example 25, 5-[3-[[(3R)-1-Ethyl-3-piperidyl]amino]-5-methyl-1,2,4-triazin-6-yl]indan-4-ol], the results for the IC50 on NLRP3 [1] and at NLRP3 [2] were 0.7 nM and 6.3 nM, respectively.
